Target: T1, Cdk2(ES) (Homo sapiens, UniProt P24941, C177A/F80C)
T1 construct: GST (N, cleaved yes); made in house; host or cells: E. coli Tuner(DE3)
Test: concentration-dependent qIT with hyperbolic regression (Ki, kinact)
Type: binding
Conditions: roughly linear dependency up to 500 μM
Method: Next we sought to carry out comprehensive kinetic analysis of the covalent binding to better understand the covSAR trends. Accordingly, the concentration dependency for the rate of reaction between Cdk2(ES) and key acrylamides 1, 6, 9 and 11 were determined using qIT (Figure 7c). To maintain pseudo‐first‐order reaction kinetics and stay within the solubility limits of the fragments, ligands were titrated from 25 to 500 μM. […] Indeed, comparing the binding conformations of the merged (9 and 11) and parent (1 and 6) fragments, we observe a subtle shift in the position of the core scaffolds and the orientation of the acrylamide link that likely explains the jump in potency that resulted from fragment merging. Overall, comparing acrylamides 9 and 11, we observe in a 3.7‐fold increase in k inact/K i and a 4.3‐fold increase in REF, and the consistency between these two orthogonal metrics of covalent fragment potency is encouraging for future applications of qIT to covalent fragment optimization.
H. Intact-protein mass spectrometry
Protein-mass data were obtained on a Waters micromass LC-TOF mass spectrometer in positive ion mode using electrospray ionization. Samples were chromatographed using an Acquity UPLC protein BEH C4 column (2.1 mm × 50 mm, 2.7 µm) with a flow rate of 30 µL/min. The injection volume was 5 µL of protein solution (5 µM) in 30 mM ammonium bicarbonate buffer con-taining 0.5% formic acid and 20% MeOH. The gradient used was 100% mobile phase A (0.1% formic acid in water/MeOH (19:1)) ramping linearly to 90% mobile phase B (0.1% formic acid in MeOH) over 5 minutes. The spectra were acquired from 500 to 2500 Da and deconvolution was performed with MassLynx (Waters), using the maximum entropy algorithm, over a mass range of […] with a mass step of 0.75. […]
Cdk2(WT) or Cdk2(ES) (1 mg) was sequentially incubated with aliquots of CAK1 (3 × 0.05 mg) at r.t. for 4 hours at a time in 1.5 mL of a 30 mM Tris/HCl buffer (pH 7.5) containing 10 mM MgCl2, 10 mM ATP and 3 mM DTT. As CAK1 appeared to be-come rapidly inactivated in the presence of pCdk2, three repetitions were required to drive the reaction to completion. The resulting solution was incubated with 50 µL of glutathione-Sepharose beads and filtered to remove remaining CAK1.
Kinase assays were performed by coupling the conversion of ATP into ADP to the oxidation of NADH (Abs = 340 nm) into NAD+, mediated by lactate dehydrogenase (LDH) and pyruvate kinase (PK). WT, mutant or ligand-conjugated pCdk2 (12.5 or 50 nM) was preincubated with Cyclin A2 (20 nM) in a buffer containing 50 mM Tris/HCl, 10 mM MgCl2, 5 mM DTT, 1 mM phosphoenolpyruvate, 0.24 mM NADH, 10 U mL-1 LDH, 14 U mL-1 PK and 5% DMSO at 37 °C for 30 minutes. Reactions were initiated by addition of 0.5 mM ATP and 0.24 mM substrate peptide (PKTPKKAKKL) and the absorbance at 340 nm was moni-tored for two hours. Assays were conducted at 37 °C and carried out in clear 384-well plates (Nunc) using a SpectraMax i3x plate reader (Molecular Devices) with a final volume of 20 µL in each well. After plotting Abs 340 against time, enzyme velocity was measured from the gradient during the linear phase of product accumulation.
Q. Concentration dependent qIT
The rate of reaction (kobs) for the reaction between each acrylamide (25, 50, 125, 250 and 500 µM) with Cdk2(ES) (5 µM) was determined us qIT (see D. Rate Determination by qIT) in duplicate. The average kobs was plotted against acrylamide concen-tration and hyperbolic regression analysis performed using Prism 8.0 software (GraphPad) to derive kinact and Ki.

Row | Ki [µM] | Compound
1 | > 1000 | C=CC(=O)N1CCCc2cc(C(=O)OC)ccc21 [compound 1]
2 | > 1000 | C=CC(=O)N1CCN(CC)c2ccccc21 [compound 6]
